Columns and labels:
[1] = test system: Porcine Smooth Muscle Cell; test: Effects of compounds on cell proliferation using 3H thymidine incorporation (porcine smooth muscle cell antiproliferation); assay type: cell-based; details: for IC50: serum/growth factor stimulated cells, 24-36 h incubation; for Porcine Smooth Muscle Cell Antiproliferation, % at 50 μM: control (100%) = maximally stimulated cells
Description: Effects of Compounds on Cell Proliferation Using ^3H Thymidine Incorporation
Human and porcine smooth muscle cells were tested in early passage (generally passage 3-7) at sub-confluent conditions. Cultures were grown in 16 mm (24 well) multi-well culture dishes in medium 199 supplemented with 10% fetal bovine serum and 2% antibiotic/antimycotic. At sub-confluence, the cells were placed in a defined serum free medium (AIM-V; Gibco) for 24-48 h prior to initiating the experimental protocol.
Compounds were added to each well at 50 fold dilution (20 μL/well) and the plates were incubated for 24-36 h at 37° C. in 5% CO2. Compounds were initially dissolved in 50% ethanol and serially diluted into media. Compounds were routinely evaluated at concentrations from 1 to 100 μM. As a control, grade II porcine intestinal mucosal herapin (sodium salt) was routinely evaluated in all cell preparations at concentrations from 0.1 to 100 μg/mL.
At the completion of the test procedure, plates were placed on ice, washed three times with ice cold phosphate buffered saline (PBS) and incubated in ice cold 10% trichloroacetic acid (TCA) got 30 min to remove acid soluble proteins. Solution was transferred to scintillation vials containing 0.4 N HCl (500 μL/vial to neutralize NaOH) and each well was rinsed two times with water (500 μL) for a total volume of 2 mL/vial.
Data was obtained, in triplicate, for both control and experimental samples. Control (100%) data was obtained from maximally stimulated cells, as the result of growth factor or serum stimulation. Experimental data was obtained from cells maximally stimulated with growth factor or serum and treated with compound. Data are expressed as an IC50 in Table I below.

Q: For `CC(=O)OC[C@H]1O[C@@H](NC(=O)c2ccc(Cl)c(N)c2)[C@H](OC(C)=O)[C@@H](OC(C)=O)[C@@H]1O[C@H]1O[C@H](COC(C)=O)[C@@H](OC(C)=O)[C@H](OC(C)=O)[C@H]1OC(C)=O` [Example 2, 3-Amino-4-chloro-N-[2,3,6-tri-O-acetyl-4-O-(2,3,4,6-tetra-O-acetyl-α-D-glucopyranosyl)-β-D-glucopyranosyl}-benzamide], which IC50 ([1]; Sus scrofa) is on record?
A: Its IC50 is 11.1 µM.

Q: What about the melting point of the same molecule?
A: The melting point was 115 to 119 °C.

Q: Which IC50 ([1]; Sus scrofa) does the source give for `CC(=O)Nc1cc(C(=O)N[C@@H]2O[C@H](COC(C)=O)[C@@H](O[C@H]3O[C@H](COC(C)=O)[C@@H](OC(C)=O)[C@H](OC(C)=O)[C@H]3OC(C)=O)[C@H](OC(C)=O)[C@H]2OC(C)=O)ccc1Cl` [Example 3, 3-(Acetylamino)-4-chloro-N-[2,3,6-tri-O-acetyl-4-O-(2,3,4,6-tetra-O-acetyl-α-D-glucopyranosyl)-β-D-glucopyranosyl}-benzamide] here?
A: The IC50 was 54.3 µM.

Q: What about the melting point of the same molecule?
A: The melting point was 122 to 124 °C.

Q: Which IC50 ([1]; Sus scrofa) does the source give for `COc1cc(C(=O)N[C@@H]2O[C@H](COC(C)=O)[C@@H](O[C@H]3O[C@H](COC(C)=O)[C@@H](OC(C)=O)[C@H](OC(C)=O)[C@H]3OC(C)=O)[C@H](OC(C)=O)[C@H]2OC(C)=O)ccc1Cl` [Example 22, 4-Chloro-3-methoxy-N-[2,3,6-tri-O-acetyl-4-O-(2,3,4,6-tetra-O-acetyl-α-D-glucopyranosyl)-β-D-glucopyranosyl]benzamide] here?
A: The IC50 was 18.5 µM.

Q: What about the melting point of the same molecule?
A: The melting point was 106 to 110 °C.

Q: Which IC50 [1] does the source give for `CCCCOc1c(Cl)cc(C(=O)NC2OC(CO)C(OC3OC4COC(c5ccccc5)OC4C(O)C3O)C(O)C2O)cc1Cl` [Example 43, N-(4′,6′-O-Benzylidene-β-D-maltosyl)-4-butoxy-3,5-dichloro-benzamide] here?
A: The IC50 was 44.5 µM.

Q: For `COc1ccc(C(=O)N[C@@H]2O[C@H](COC(C)=O)[C@@H](O[C@H]3O[C@H](COC(C)=O)[C@@H](OC(C)=O)[C@H](OC(C)=O)[C@H]3OC(C)=O)[C@H](OC(C)=O)[C@H]2OC(C)=O)cc1Cl` [Example 44, N-(Hepta-O-acetyl-β-D-maltosyl)-3-chloro-4-methoxy-benzamide], which IC50 [1] is on record?
A: The IC50 was 5.4 µM.

Q: With `COc1ccc(CC(=O)N[C@@H]2O[C@H](COC(C)=O)[C@@H](O[C@H]3O[C@H](COC(C)=O)[C@@H](OC(C)=O)[C@H](OC(C)=O)[C@H]3OC(C)=O)[C@H](OC(C)=O)[C@H]2OC(C)=O)cc1OC` [Example 45, N-(2,2′,3,3′,4′,6,6′-hepta-O-acetyl-β-D-maltosyl)-1-(3,4-dimethoxy)-phenyl-acetamide] as the molecule, how does the IC50 [1] read?
A: The IC50 was 16.6 µM.

Q: For `COc1ccc(CC(=O)NC2OC(CO)C(OC3OC4COC(c5ccccc5)OC4C(O)C3O)C(O)C2O)cc1OC` [Example 46, N-(4′,6′-Benzylidene-β-D-maltosyl)-2-(3,4-dimethoxy-phenyl)-acetamide], which “Porcine Smooth Muscle Cell Antiproliferation, % at 50 μM” value [1] is on record?
A: The value was 0% at 50.

Q: For `COc1ccc(CC(=O)NC2OC(COC(=O)c3ccccc3)C(OC3OC4COC(c5ccccc5)OC4C(O)C3O)C(O)C2O)cc1OC` [Example 47, N-(6-O-Benzoyl-4′,6′-O-benzylidene-β-D-maltosyl)-2-(3,4-dimethoxy-phenyl)-acetamide], which IC50 [1] is on record?
A: The IC50 was 8 µM.

Q: For `CC(=O)OC[C@H]1O[C@@H](NC(=O)Cc2ccc(O)c([N+](=O)[O-])c2)[C@H](OC(C)=O)[C@@H](OC(C)=O)[C@@H]1O[C@H]1O[C@H](COC(C)=O)[C@@H](OC(C)=O)[C@H](OC(C)=O)[C@H]1OC(C)=O` [Example 48, N-(Hepta-O-acetyl-β-D-maltosyl)-2-(4-hydroxy-3-nitro-phenyl)-acetamide], which “Porcine Smooth Muscle Cell Antiproliferation, % at 50 μM” value [1] is on record?
A: The value was 37% at 50.

Q: For `CCCCOc1c(Cl)cc(C(=O)N[C@@H]2O[C@H](COC(C)=O)[C@@H](O[C@H]3O[C@H](COC(C)=O)[C@@H](OC(C)=O)[C@H](OC(C)=O)[C@H]3OC(C)=O)[C@H](OC(C)=O)[C@H]2OC(C)=O)cc1Cl` [Example 49, N-(2,2′,3,3′,4′,6,6′-Hepta-O-acetyl-β-D-maltosyl)-4-butoxy-3,5-dichloro-benzylamide], which IC50 [1] is on record?
A: The IC50 was 12.6 µM.

Q: Which IC50 [1] does the source give for `CC(=O)OC[C@H]1O[C@@H](NC(=O)Cc2ccc(Cl)c([N+](=O)[O-])c2)[C@H](OC(C)=O)[C@@H](OC(C)=O)[C@@H]1O[C@H]1O[C@H](COC(C)=O)[C@@H](OC(C)=O)[C@H](OC(C)=O)[C@H]1OC(C)=O` [Example 50, N-(2,2′,3,3′,4′,6,6′-hepta-O-acetyl-β-D-maltosyl)-2-(4-chloro-3-nitro-phenyl)-acetamide] here?
A: Its IC50 is 4.23 µM.

Q: With `CC(=O)Nc1cc(CC(=O)N[C@@H]2O[C@H](COC(=O)c3ccccc3)[C@@H](O[C@H]3O[C@@H]4COC(c5ccccc5)O[C@H]4[C@H](O)[C@H]3O)[C@H](O)[C@H]2O)ccc1Cl` (stereo partly drawn) [Example 51] as the molecule, how does the IC50 [1] read?
A: The IC50 was 0.916 µM.
